In ChEMBL document CHEMBL4811289, “Antibacterial and Cytotoxic Phenyltetracenoid Polyketides from Streptomyces morookaense” (J Nat Prod, 2021):
≈ marks a conversion by molar mass, not a printed value. Where “and” joins values, the source holds several entries; their conditions need not be identical. Equal values may be shown once. Where a name gives a salt, the structure may show the parent alone.

Tests used:
A549 = experiment: Cytotoxicity against human A549 cells assessed as reduction in cell viability after 72 hrs by MTT assay; assay type: functional, cell-based
Enterococcus faecium [1] = experiment: Antibacterial activity against vancomycin-sensitive Enterococcus faecium incubated for 6 to 8 hrs by MABA; assay type: functional; settings: time 6-8 hrs
Vero = experiment: Cytotoxicity against African green monkey Vero cells assessed as reduction in cell viability after 72 hrs by MTT assay; assay type: cell-based, Chlorocebus sabaeus
HeLa = experiment: Cytotoxicity against human HeLa cells assessed as reduction in cell viability after 72 hrs by MTT assay; assay type: functional, cell-based
MCF7 = experiment: Cytotoxicity against human MCF7 cells assessed as reduction in cell viability after 72 hrs by MTT assay; assay type: functional, cell-based
Enterococcus faecium [2] = experiment: Antibacterial activity against vancomycin-resistant Enterococcus faecium incubated for 6 to 8 hrs by MABA; assay type: functional; settings: time 6-8 hrs
HepG2 = experiment: Cytotoxicity against human HepG2 cells assessed as reduction in cell viability after 72 hrs by MTT assay; assay type: functional, cell-based
Staphylococcus aureus [3] = experiment: Antibacterial activity against methicillin-resistant Staphylococcus aureus ATCC 6548 incubated for 6 to 8 hrs by MABA; assay type: functional; settings: time 6-8 hrs
Staphylococcus aureus [4] = experiment: Antibacterial activity against methicillin-sensitive Staphylococcus aureus incubated for 6 to 8 hrs by MABA; assay type: functional; settings: time 6-8 hrs
[5] = Chlorocebus sabaeus, Vero, 72 h

Structure (SMILES) | IC50 (A549; Homo sapiens, A549, 72 h) | MIC (Enterococcus faecium [1]) | IC50 (Vero; [5]) | IC50 (HeLa; Homo sapiens, HeLa, 72 h) | IC50 (MCF7; Homo sapiens, MCF7, 72 h) | MIC (Enterococcus faecium [2]) | IC50 (HepG2; Homo sapiens, HepG2, 72 h) | MIC (Staphylococcus aureus [3]) | MIC (Staphylococcus aureus [4]) | IC50 (A549; a549) | IC50 (Vero; vero) | IC50 (HeLa; hela) | IC50 (MCF7; mcf7) | IC50 (HepG2; hepg2)
COc1cc(C)c(-c2cc(OC)cc3cc4c(c(O)c23)C(=O)c2c(O)cc(O)cc2C4(C)C)c(O)c1 | 3.3 µM | 1.25 µg/mL (≈ 2.57 µM) | 6.4 µM | 4.7 µM | 7.1 µM | 1.25 µg/mL (≈ 2.57 µM) | 4.4 µM | 1.25 µg/mL (≈ 2.57 µM) | 1.25 µg/mL (≈ 2.57 µM) |  |  |  |  | 
COc1cc(C)c(-c2cc(OC)c(Cl)c3cc4c(c(O)c23)C(=O)c2c(cc(OC)c(Cl)c2OC)C4(C)C)c(O)c1 | 8.3 µM | > 10 µg/mL | 9 µM | 15 µM | 13.1 µM |  | 15 µM | > 10 µg/mL | > 10 µg/mL |  |  |  |  | 
COc1cc2c(c(O)c1Cl)C(=O)c1c(cc3cc(O)cc(-c4c(O)cc(O)c(Cl)c4C)c3c1O)C2(C)C | 13.1 µM |  | 14.6 µM | 15 µM | 17.6 µM |  | 11.7 µM |  |  |  |  |  |  | 
COc1cc(C)c(-c2nc(C)cc3cc4c(c(O)c23)C(=O)c2c(cc(OC)c(Cl)c2OC)C4(C)C)c(OC)c1 | 14.5 µM | > 10 µg/mL | 6.1 µM | 3.4 µM | 4.4 µM |  | 9.5 µM | > 10 µg/mL | > 10 µg/mL | 12.6 µM | 10 µM | 3.3 µM | 8.7 µM | 8.7 µM
COc1cc2c(c(O)c1Cl)C(=O)c1c(cc3c(Cl)c(O)cc(-c4c(C)c(Cl)c(O)c(Cl)c4O)c3c1O)C2(C)C | 7 µM |  | 27.3 µM | 14.3 µM | 18.1 µM |  | 9.8 µM |  |  |  |  |  |  | 
COC1=CC(=O)C(c2cc(OC)cc3cc4c(c(O)c23)C(=O)c2c(cc(OC)c(Cl)c2O)C4(C)C)=C(C)C1=O | > 50 µM | > 10 µg/mL | > 50 µM | > 50 µM | > 50 µM |  | > 50 µM | > 10 µg/mL | > 10 µg/mL |  |  |  |  | 
COc1cc(C)c(-c2cc(O)c(Cl)c3cc4c(c(O)c23)C(=O)c2c(cc(OC)c(Cl)c2O)C4(C)C)c(O)c1 | 2.8 µM |  | 9 µM | 3.3 µM | 3.6 µM |  | 3.2 µM |  |  |  |  |  |  | 
COc1cc2c(c(O)c1Cl)C(=O)c1c(cc3cc(O)cc(-c4c(C)c(OC)c(OC)c(Cl)c4O)c3c1O)C2(C)C | 9.1 µM | 2.5 µg/mL (≈ 4.27 µM) | 14.5 µM | 7.2 µM | 17.8 µM | 5 µg/mL (≈ 8.54 µM) | 9.9 µM | 1.25 µg/mL (≈ 2.14 µM) | 1.25 µg/mL (≈ 2.14 µM) |  |  |  |  | 
COc1c(Cl)c(C)c(-c2cc(O)cc3cc4c(c(O)c23)C(=O)c2c(cc(O)c(Cl)c2O)C4(C)C)c(O)c1Cl | 5 µM | 1.25 µg/mL (≈ 2.17 µM) | 12.4 µM | 6 µM | 14.4 µM | 1.25 µg/mL (≈ 2.17 µM) | 7.7 µM | 1.25 µg/mL (≈ 2.17 µM) | 1.25 µg/mL (≈ 2.17 µM) |  |  |  |  | 
COc1cc2c(c(O)c1Cl)C(=O)c1c(cc3cc(O)cc(-c4c(C)c(Cl)c(O)c(Cl)c4O)c3c1O)C2(C)C | 4.6 µM |  | 12.5 µM | 6.1 µM | 9.2 µM |  | 4.5 µM |  |  |  |  |  |  | 
COc1cc(C)c(C(=O)c2c(CC(C)=O)cc3c(c2O)C(=O)c2c(OC)cc(OC)cc2C3(C)C)c(OC)c1 | 13.1 µM | > 10 µg/mL | > 50 µM | > 50 µM | 29.3 µM |  | > 50 µM | > 10 µg/mL | > 10 µg/mL |  |  |  |  | 
COc1cc(C)c(-c2cc(O)cc3cc4c(c(O)c23)C(=O)c2c(cc(OC)c(Cl)c2OC)C4(C)C)c(O)c1 | 3.3 µM | 2.5 µg/mL (≈ 4.67 µM) | 3 µM | 3.9 µM | 5 µM | 2.5 µg/mL (≈ 4.67 µM) | 5.7 µM | 2.5 µg/mL (≈ 4.67 µM) | 2.5 µg/mL (≈ 4.67 µM) |  |  |  |  | 
COc1cc(C)c(-c2cc(OC)cc3cc4c(c(O)c23)C(=O)c2c(cc(OC)c(Cl)c2O)C4(C)C)c(O)c1 | 7.6 µM | > 10 µg/mL | 8.2 µM | 4.6 µM | 7.5 µM |  | 8.3 µM | > 10 µg/mL | > 10 µg/mL |  |  |  |  | 
COc1cc(C)c(-c2cc(OC)c(Cl)c3cc4c(c(O)c23)C(=O)c2c(cc(OC)c(Cl)c2O)C4(C)C)c(O)c1 | 9 µM | > 10 µg/mL | 6.1 µM | 11.5 µM | 3.8 µM |  | 9.2 µM | > 10 µg/mL | > 10 µg/mL |  |  |  |  | 
COc1cc(-c2c(O)cc(O)c(Cl)c2C)c2c(O)c3c(cc2c1)C(C)(C)c1cc(OC)c(Cl)c(O)c1C3=O | 6.4 µM | 1.25 µg/mL (≈ 2.25 µM) | 13.7 µM | 5.3 µM | 10.7 µM | 5 µg/mL (≈ 9 µM) | 7.3 µM | 1.25 µg/mL (≈ 2.25 µM) | 2.5 µg/mL (≈ 4.5 µM) |  |  |  |  | 
COc1cc2c(c(O)c1Cl)C(=O)c1c(cc3c(Cl)c(O)cc(-c4c(C)c(Cl)c(OC)c(Cl)c4O)c3c1O)C2(C)C | 5.6 µM | 2.5 µg/mL (≈ 4 µM) | 12 µM | 9.9 µM | 13.9 µM | 5 µg/mL (≈ 8.01 µM) | 8.8 µM | 2.5 µg/mL (≈ 4 µM) | 2.5 µg/mL (≈ 4 µM) |  |  |  |  | 
COc1cc2c(c(O)c1Cl)C(=O)c1c(cc3c(Cl)c(O)cc(-c4c(O)cc(O)c(Cl)c4C)c3c1O)C2(C)C | 3.1 µM |  | 14.6 µM | 4.7 µM | 4.7 µM |  | 5.3 µM |  |  |  |  |  |  | 
COc1cc2c(c(O)c1Cl)C(=O)c1c(cc3cc(O)cc(-c4c(C)c(Cl)c(O)c(Cl)c4OC)c3c1O)C2(C)C | 5.4 µM |  | 11.1 µM | 4.8 µM | 18.4 µM |  | 4.7 µM |  |  |  |  |  |  | 
COc1cc(C)c(-c2cc(OC)cc3cc4c(c(O)c23)C(=O)c2c(cc(O)c(Cl)c2O)C4(C)C)c(O)c1 | 5.6 µM | 2.5 µg/mL (≈ 4.8 µM) | 18.9 µM | 7 µM | 24.3 µM | 5 µg/mL (≈ 9.6 µM) | 12.1 µM | 2.5 µg/mL (≈ 4.8 µM) | 2.5 µg/mL (≈ 4.8 µM) |  |  |  |  | 
COc1cc(O)c(-c2cc(O)cc3cc4c(c(O)c23)C(=O)c2c(cc(OC)c(Cl)c2O)C4(C)C)c(C)c1Cl | 2.6 µM |  | 3.5 µM | 3.7 µM | 3.1 µM |  | 3.7 µM |  |  |  |  |  |  | 
COc1cc(-c2c(O)cc(OC)c(Cl)c2C)c2c(O)c3c(cc2c1)C(C)(C)c1cc(OC)c(Cl)c(O)c1C3=O | 7.7 µM | > 10 µg/mL | 18 µM | 22.4 µM | 18.3 µM |  | 10.2 µM | > 10 µg/mL | > 10 µg/mL |  |  |  |  | 
COc1cc(C)c(-c2cc(OC)c(Cl)c3cc4c(c(O)c23)C(=O)c2c(cc(O)c(Cl)c2O)C4(C)C)c(O)c1 | 4.8 µM | 2.5 µg/mL (≈ 4.5 µM) | 4.8 µM | 6 µM | 7.6 µM | 2.5 µg/mL (≈ 4.5 µM) | 7.2 µM | 1.25 µg/mL (≈ 2.25 µM) | 1.25 µg/mL (≈ 2.25 µM) |  |  |  |  | 
COc1cc(C)c(-c2nc(C)cc3cc4c(c(O)c23)C(=O)c2c(OC)cc(OC)cc2C4(C)C)c(OC)c1 | 5.1 µM | > 10 µg/mL |  | 3.7 µM | 5.9 µM |  | 3.4 µM | > 10 µg/mL | > 10 µg/mL | 6.6 µM | 2.7 µM and 7.5 µM | 4.6 µM | 11.2 µM | 3.8 µM
COc1cc(C)c(-c2cc(O)cc3cc4c(c(O)c23)C(=O)c2c(cc(O)c(Cl)c2O)C4(C)C)c(O)c1 | 13.3 µM | 2.5 µg/mL (≈ 4.93 µM) | 33 µM | 15.2 µM | 40.3 µM | 10 µg/mL (≈ 19.7 µM) | 11.9 µM | 5 µg/mL (≈ 9.86 µM) | 5 µg/mL (≈ 9.86 µM) |  |  |  |  | 
COc1cc(C)c(-c2cc(O)cc3cc4c(c(O)c23)C(=O)c2c(cc(OC)c(Cl)c2O)C4(C)C)c(O)c1 | 3.4 µM |  | 3.3 µM | 2.9 µM | 3 µM |  | 3.2 µM |  |  |  |  |  |  | 
COc1cc2c(c(O)c1Cl)C(=O)c1c(cc3c(Cl)c(OC)cc(-c4c(O)cc(O)c(Cl)c4C)c3c1O)C2(C)C | 5.2 µM | 1.25 µg/mL (≈ 2.12 µM) | 7.9 µM | 6.3 µM | 10.1 µM | 5 µg/mL (≈ 8.48 µM) | 6.2 µM | 2.5 µg/mL (≈ 4.24 µM) | 2.5 µg/mL (≈ 4.24 µM) |  |  |  |  | 
COc1cc(C)c(-c2cc(OC)cc3cc4c(c(O)c23)C(=O)c2c(cc(OC)c(Cl)c2OC)C4(C)C)c(O)c1 | 6.4 µM | > 10 µg/mL | 5.8 µM | 4.1 µM | 7.9 µM |  | 3.2 µM | > 10 µg/mL | > 10 µg/mL |  |  |  |  | 
COc1cc(C)c(-c2cc(O)c(Cl)c3cc4c(c(O)c23)C(=O)c2c(cc(O)c(Cl)c2O)C4(C)C)c(O)c1 | 8.9 µM | 2.5 µg/mL (≈ 4.62 µM) | 47 µM | 11 µM | 21.7 µM | 5 µg/mL (≈ 9.24 µM) | 9.4 µM | 1.25 µg/mL (≈ 2.31 µM) | 1.25 µg/mL (≈ 2.31 µM) |  |  |  |  | 
COc1cccc2c1C(=O)c1c(O)c3c(c(O)c1C2=O)C[C@@](O)(C(=O)CO)C[C@@H]3O[C@H]1C[C@H](N)[C@H](O)[C@H](C)O1 [DOXORUBICIN HYDROCHLORIDE] | 0.69 µM |  |  | 0.31 µM | 1.02 µM |  | 0.8 µM |  |  |  |  |  |  | 
CN[C@H](CC(C)C)C(=O)N[C@H]1C(=O)N[C@@H](CC(N)=O)C(=O)N[C@H]2C(=O)N[C@H]3C(=O)N[C@H](C(=O)N[C@H](C(=O)O)c4cc(O)cc(O)c4-c4cc3ccc4O)[C@H](O)c3ccc(c(Cl)c3)Oc3cc2cc(c3O[C@@H]2O[C@H](CO)[C@@H](O)[C@H](O)[C@H]2O[C@H]2C[C@](C)(N)[C@H](O)[C@H](C)O2)Oc2ccc(cc2Cl)[C@H]1O [VANCOMYCIN] |  | 1.25 µg/mL (≈ 0.863 µM) |  |  |  | > 40 µg/mL |  | 0.63 µg/mL (≈ 0.435 µM) |  |  |  |  |  | 
